Laboratory results reported in patent publication US20080108581A1, “Compounds and Their Use for Specific and Simultaneous Inhibition of Genes Involved In Diseases and Related Drugs” (INSTITUT NATIONAL DE LA SANTE ET DE LA RECHERCHE MEDICAL …, priority 2003, published 2008).

Columns and labels:
human topoisomerase I = molecular target: T1, human topoisomerase I (Homo sapiens, UniProt P11387); assay: Topoisomerase I DNA cleavage test on radiolabelled duplex; type: biochemical; conditions: in vitro, free inhibitors
T1 construct: purchased Invitrogen Inc
T1 sequence (P11387 1-765): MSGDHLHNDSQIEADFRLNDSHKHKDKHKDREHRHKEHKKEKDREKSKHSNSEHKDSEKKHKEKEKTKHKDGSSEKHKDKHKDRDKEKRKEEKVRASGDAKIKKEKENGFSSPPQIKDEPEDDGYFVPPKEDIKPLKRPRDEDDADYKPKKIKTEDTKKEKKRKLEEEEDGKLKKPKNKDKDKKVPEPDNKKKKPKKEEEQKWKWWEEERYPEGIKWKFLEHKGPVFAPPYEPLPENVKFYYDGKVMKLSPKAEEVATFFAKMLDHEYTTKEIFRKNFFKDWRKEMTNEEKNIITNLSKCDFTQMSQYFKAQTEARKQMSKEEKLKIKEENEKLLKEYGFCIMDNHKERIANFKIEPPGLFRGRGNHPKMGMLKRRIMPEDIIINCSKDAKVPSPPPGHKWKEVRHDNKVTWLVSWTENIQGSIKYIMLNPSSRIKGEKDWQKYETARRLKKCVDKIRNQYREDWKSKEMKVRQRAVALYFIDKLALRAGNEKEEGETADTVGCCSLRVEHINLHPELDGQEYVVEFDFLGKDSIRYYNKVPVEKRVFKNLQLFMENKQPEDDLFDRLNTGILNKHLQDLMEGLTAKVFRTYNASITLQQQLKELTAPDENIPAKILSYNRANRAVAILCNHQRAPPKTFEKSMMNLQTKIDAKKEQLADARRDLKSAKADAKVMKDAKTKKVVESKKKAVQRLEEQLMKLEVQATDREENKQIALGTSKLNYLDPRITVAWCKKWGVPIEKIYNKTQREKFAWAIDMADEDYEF
Description: The radiolabelled 324-bp duplex in position 3′ on the oligopyrimidine strand (well 1) was incubated with topoisomerase I in the presence of three camptothecin derivatives (wells 2-4, 10CPT, 7CPT, SCPT), or of these three derivatives conjugated with TFO 16 (wells 5-7, TFO16-L4-10CPT, TFO16-L6-CPT, TFO16-L3-SCPT). The cleavage sites are indicated by letters and the binding site of the conjugate is shown diagrammatically. L3=diaminopropynyl; L4=diaminobutyl, L6=diaminohexyl; after incubation, the protein is digested by a treatment with SDS/proteinase K and the cleavage products are analysed on a denaturating gel;
The radiolabelled duplexes (50 nM) are incubated for 1 hour at 30° C., in 50 mM. […] After ethanol precipitation, all the samples are re-suspended in 6 μl of formamide, heated to 90° C. for 4 minutes and cooled again on ice for 4 mins, before being deposited on 8% and 10% denaturing polyacrylamide gel [19/1 acrylamide:bisacrylamide], for the long and short targets respectively, containing 7.5 M urea in 1× TBE buffer (50 mM Tris-HCl, 55 mM boric acid, 1 Mm EDTA), In order to quantify the cleavage intensity, the gels are scanned with a Dynamics 445SI Phosphorimager. […]
The cleavage specificity of the conjugates was measured in vitro by a standard topoisomerase I cleavage test. […]

[1] = molecular target: T2, DNA/topo I cleavage complexes (Homo sapiens, UniProt P11387); assay: Formation of DNA/topo I cleavage complexes in HeLa nuclei followed by immunoblot (CsCl gradient, Western slot blot); type: cell-based; conditions: 3 h at 37° C., 5 μM (FIG. 8)
T2 construct: HeLa nucleus cells (5000000) were prepared and incubated 3 h at 37° C. with the topoisomerase I poison; endogenous in cells; host or cells: HeLa nuclei
T2 sequence (P11387 1-765): T1 sequence (P11387 1-765)
Description: FIG. 8 gives correlation results of the biological effects with the formation of DNA/topo I/CPT complexes: the formation of the complexes in the cells was followed by immunoblot.
In the experiments corresponding to FIG. 8, HeLa nucleus cells (5000000) were prepared and incubated 3 h at 37° C. with the topoisomerase I poison free (CPT or ST1578) or coupled to oligonucleotide (TFO-L4-10CPT or TFO-ST1578 or LNA-ST1578), or with a control oligonucleotide (TFO-NH2 or TFO-NPh2) at various concentration (in FIG. 8 at 5 μM). After adding of sarkosyl, the lysates were ultracentrifugated 16 h on a gradient of CsCl. 12 fractions were recovered and analysed by Western slot blot to show the fractions containing topoisomerase I (in 1-4 for the untreated control (mock)).
The fractions containing the DNA were identified by measuring absorbance at 260 nm (fractions 8-10).

Compound | stimulation of DNA cleavage by topoisomerase 1 compared with 7-aminoethyl-camptothecin (human topoisomerase I) | fractions of the CsCl gradient containing topoisomerase I (stabilisation of DNA/topo I cleavage complexes) [1]
CC[C@@]1(O)C(=O)OCc2c1cc1n(c2=O)Cc2cc3cc(C(=O)O)ccc3nc2-1 [10-carboxycamptothecin, 20S-10-carboxycamptothecin] | more effectively | 
CC[C@@]1(O)C(=O)OCc2c1cc1n(c2=O)Cc2cc3ccccc3nc2-1 [CPT, camptothecin] |  | observed only in fractions containing DNA
CC[C@@]1(O)C(=O)OCc2c1cc1n(c2=O)Cc2c-1nc1ccccc1c2C=NCCN [ST1578, 20S-7-aminoethyliminomethylcamptothecin] |  | observed only in fractions containing DNA
